Laboratory results taken from article PMC2847825 (Biological chemistry, 2009).

Target: T1, phenylalanine hydroxylase (Rattus norvegicus, UniProt P04176)
T1 sequence (P04176 2-453): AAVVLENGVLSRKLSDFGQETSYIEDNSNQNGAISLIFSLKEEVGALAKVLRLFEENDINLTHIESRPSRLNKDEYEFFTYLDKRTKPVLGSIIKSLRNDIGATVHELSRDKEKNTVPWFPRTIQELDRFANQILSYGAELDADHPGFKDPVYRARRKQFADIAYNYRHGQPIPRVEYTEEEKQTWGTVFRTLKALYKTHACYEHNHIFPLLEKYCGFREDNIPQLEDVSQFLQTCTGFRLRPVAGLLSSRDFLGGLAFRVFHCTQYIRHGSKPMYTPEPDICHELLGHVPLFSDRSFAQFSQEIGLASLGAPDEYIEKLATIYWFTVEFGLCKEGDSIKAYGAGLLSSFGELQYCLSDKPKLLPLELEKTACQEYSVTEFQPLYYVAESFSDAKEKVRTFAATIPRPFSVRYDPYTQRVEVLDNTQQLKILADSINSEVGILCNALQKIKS
Experiment: recombinant enzyme activity, HPLC detection of tyrosine
Assay type: biochemical

recombinant enzyme activity, HPLC detection of tyrosine: 0.01 mM
Structure (SMILES): c1cnc2c(c1)ccc1cccnc12 [1,10-phenanthroline]
